Experimental data: patent publication US7169786B2, “Isoxazoline derivatives as anti-depressants” (priority 2001, dated 2007)
Where two headings read alike, the source gives them in different places. One block for each molecule: values may come before it.

Tests used:
hα2B receptor = biological target: T1, hα2B receptor (Homo sapiens, UniProt P18089); assay: Radioligand binding experiment for hα2B receptor ([3H]-raulwolscine)
T1 construct: expressed in transfected cells
T1 sequence (P18089 1-450): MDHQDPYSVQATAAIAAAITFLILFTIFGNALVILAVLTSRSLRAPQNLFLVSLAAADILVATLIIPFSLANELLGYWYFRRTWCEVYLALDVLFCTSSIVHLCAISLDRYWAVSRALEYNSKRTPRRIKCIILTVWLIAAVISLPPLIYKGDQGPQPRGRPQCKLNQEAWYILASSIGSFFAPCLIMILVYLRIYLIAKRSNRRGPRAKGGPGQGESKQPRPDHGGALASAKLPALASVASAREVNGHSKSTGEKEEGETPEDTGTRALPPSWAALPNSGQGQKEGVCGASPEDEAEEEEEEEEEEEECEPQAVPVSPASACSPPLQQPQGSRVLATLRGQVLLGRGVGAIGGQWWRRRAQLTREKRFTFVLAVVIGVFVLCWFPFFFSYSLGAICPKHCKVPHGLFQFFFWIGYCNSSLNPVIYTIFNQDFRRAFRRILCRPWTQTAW
Method: (§1) The interaction of the compounds of Formula (I) with hα2-receptors and h5-HT-transporters was assessed in in vitro radioligand binding experiments. In general, a low concentration of a radioligand with a high binding affinity for a particular receptor or transporter is incubated with a sample of a tissue preparation enriched in a particular receptor or transporter or with a preparation of cells expressing cloned human receptors in a buffered medium. During the incubation, the radioligand binds to the receptor or transporter. When equilibrium of binding is reached, the receptor bound radioactivity is separated from the non-bound radioactivity, and the receptor- or transporter-bound activity is counted. The interaction of the test compounds with the receptor is assessed in competition binding experiments. Various concentrations of the test compound are added to the incubation mixture containing the receptor- or transporter preparation and the radioligand. The test compound in proportion to its binding affinity and its concentration inhibits binding of the radioligand. The radioligand used for hα2A, hα2B and hα2C receptor binding was [^3H]-raulwolscine and for the h5-HT transporter was [^3H]paroxetine.
(§2) CHO cells, stabile transfected with human adrenergic-α2A-, -α2B or α2C receptor cDNA, were cultured in Dulbecco's Modified Eagle's Medium (DMEM)/Nutrient mixture Ham's F12 (ratio 1:1)(Gibco, Gent-Belgium) supplemented with 10% heat inactivated fetal calf serum (Life Technologies, Merelbeke-Belgium) and antibiotics (100 IU/ml penicillin G, 100 μg/ml streptomycin sulphate, 110 μg/ml pyruvic acid and 100 μg/ml L-glutamine). One day before collection, cells were induced with 5 mM sodiumbutyrate. Upon 80–90% of confluence, cells were scraped in phosphate buffered saline without Ca^2+ and Mg^2+ and collected by centrifugation at 1500×g for 10 min. The cells were homogenised in Tris-HCl 50 mM using an Ultraturrax homogenizer and centrifuged for 10 min at 23,500×g. The pellet was washed once by resuspension and rehomogenization and the final pellet was resuspended in Tris-HCl, divided in 1 ml aliquots and stored at −70° C.
(§3) Membranes were thawed and re-homogenized in incubation buffer (glycylglycine 25 mM, pH 8.0). […] Filters were rinsed extensively with ice-cold rinsing buffer (Tris-HCl 50 mM pH 7.4). Filter-bound radioactivity was determined by scintillation counting in a Topcount (Packard, Meriden, Conn.) and results were expressed as counts per minute (cpm). Non-specific binding was determined in the presence of 1 μM oxymetazoline for hα2A- and hα2B receptors and 1 μM spiroxatrine for hα2C receptors.
(§4) Data from assays in the presence of compound were calculated as a percentage of total binding measured in the absence of test compound. Inhibition curves, plotting percent of total binding versus the log value of the concentration of the test compound, were automatically generated, and sigmoidal inhibition curves were fitted using non-linear regression. The pIC50 values of test compounds were derived from individual curves.

h5-HT transporter = biological target: T2, h5-HT transporter (Homo sapiens, UniProt P31645); assay: Radioligand binding experiment for 5-HT transporter ([3H]paroxetine, human platelet membranes)
T2 construct: Human platelet membranes (Oceanix Biosciences Corporation, Hanover, Md., USA) were thawed; tissue Oceanix Biosciences Corporation, Hanover, Md., USA; host or cells: human platelet membranes
T2 sequence (P31645 whole entry): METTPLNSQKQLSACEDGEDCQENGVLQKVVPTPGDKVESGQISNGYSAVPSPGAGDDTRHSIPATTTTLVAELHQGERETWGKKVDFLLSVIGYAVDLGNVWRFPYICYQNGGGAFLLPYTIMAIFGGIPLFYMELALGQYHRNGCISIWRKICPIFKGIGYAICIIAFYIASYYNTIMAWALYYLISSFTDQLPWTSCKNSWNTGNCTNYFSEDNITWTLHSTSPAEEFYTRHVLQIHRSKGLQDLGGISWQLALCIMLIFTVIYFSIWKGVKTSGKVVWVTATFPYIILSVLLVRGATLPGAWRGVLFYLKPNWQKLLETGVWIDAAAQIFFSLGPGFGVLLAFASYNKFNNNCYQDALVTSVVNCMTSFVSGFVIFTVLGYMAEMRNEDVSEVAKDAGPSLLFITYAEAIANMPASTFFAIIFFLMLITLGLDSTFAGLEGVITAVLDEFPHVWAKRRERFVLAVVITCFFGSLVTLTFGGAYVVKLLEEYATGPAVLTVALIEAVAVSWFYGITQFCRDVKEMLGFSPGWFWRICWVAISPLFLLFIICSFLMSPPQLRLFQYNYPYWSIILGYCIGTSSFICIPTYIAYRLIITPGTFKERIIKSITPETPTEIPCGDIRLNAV
Method: as §1
Human platelet membranes (Oceanix Biosciences Corporation, Hanover, Md., USA) were thawed, diluted in buffer (Tris-HCl 50 mM, 120 mM NaCl and 5 mM KCl) and quickly (max 3 s) homogenised with an Ultraturrax homogenizer. […] Filters were rinsed extensively with ice-cold buffer and radioactivity on the filters was counted in a Topcount liquid scintillation counter (Packard, Meriden, Conn.). Data were expressed as cpm. Imipramine (at 1 μM final concentration) was used to determine the non-specific binding.
as §4

hα2C receptor = biological target: T3, hα2C receptor (Homo sapiens, UniProt P18825); assay: Radioligand binding experiment for hα2C receptor ([3H]-raulwolscine)
T3 construct: expressed in transfected cells
T3 sequence (P18825 1-462): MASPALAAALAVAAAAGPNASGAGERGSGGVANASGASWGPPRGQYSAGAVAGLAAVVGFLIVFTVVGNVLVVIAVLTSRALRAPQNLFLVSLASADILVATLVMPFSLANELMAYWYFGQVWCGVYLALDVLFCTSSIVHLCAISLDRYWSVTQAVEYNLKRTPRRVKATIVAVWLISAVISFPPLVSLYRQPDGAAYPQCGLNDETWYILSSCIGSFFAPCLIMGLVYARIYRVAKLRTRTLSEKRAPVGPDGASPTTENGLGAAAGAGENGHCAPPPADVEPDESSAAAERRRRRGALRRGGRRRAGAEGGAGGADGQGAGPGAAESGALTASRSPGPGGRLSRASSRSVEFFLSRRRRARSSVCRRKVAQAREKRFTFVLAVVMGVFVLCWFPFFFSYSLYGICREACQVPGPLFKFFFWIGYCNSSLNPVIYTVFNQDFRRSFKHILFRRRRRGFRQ
Method: as §1, §2, §3, §4

[1] = read-out: hα2B pIC50 (converted)
[2] = read-out: 5HTT pIC50 (converted)
[3] = membranes of CHO cells expressing human α2B receptor, [3H]raulwolscine 1 nM
[4] = membranes of CHO cells expressing human α2C receptor, [3H]raulwolscine 1 nM
[5] = human platelet membranes, [3H]paroxetine 0.5 nM
[6] = membranes of CHO cells expressing human α2B receptor, [3H]raulwolscine 1 nM, read-out: hα2B pIC50 (converted)
[7] = membranes of CHO cells expressing human α2C receptor, [3H]raulwolscine 1 nM, read-out: hα2C pIC50 (converted)
[8] = hα2C pIC50, membranes of CHO cells expressing human α2C receptor, [3H]raulwolscine 1 nM
[9] = read-out: hα2C pIC50 (converted)
[10] = human platelet membranes, [3H]paroxetine 0.5 nM, read-out: 5HTT pIC50 (converted)

SMILES: COc1cc2c(cc1OC)C1=NOC(CN3CCN(C/C=C/c4ccccc4)CC3)C1CO2 (single isomer, unassigned) [Compound 1]
- IC50 (hα2B receptor; [1]): 0.00324 µM
- IC50 (h5-HT transporter; [2]): 0.00513 µM

SMILES: CC(=Cc1ccccc1)CN1CCN(CC2ON=C3c4ccccc4NCC32)CC1 (stereo not shown) [Compound 234]
- hα2B pIC50 (hα2B receptor; [3]): 8.88
- hα2C pIC50 (hα2C receptor; [4]): 8.41
- 5HTT pIC50 (h5-HT transporter; [5]): 7.71

SMILES: COc1cc2c(cc1OC)C1=NOC(CN3CCN(Cc4ccc5ccccc5c4)CC3)C1CN2 (stereo not shown) [Compound 15]
- IC50 (hα2B receptor; [6]): 0.0145 µM
- IC50 (hα2C receptor; [7]): 0.0115 µM
- IC50 (h5-HT transporter; [2]): 0.017 µM

SMILES: CCNC(=O)Oc1cc2c(cc1OC)C1=NOC(CN3CCN(C/C(C)=C/c4ccccc4)CC3)C1CO2 (single isomer, unassigned) [Compound 340]
- IC50 (hα2C receptor; [8]): 0.0038 µM
- IC50 (h5-HT transporter; 5HTT pIC50): 0.0229 µM

SMILES: CC(=Cc1ccccc1)CN1CCN(CC2ON=C3c4ccc(OC(=O)C(C)(C)C)cc4OCC32)CC1 (stereo not shown) [Compound 329]
- IC50 (hα2B receptor; [6]): 0.0275 µM
- IC50 (hα2C receptor; [9]): 0.0182 µM
- IC50 (h5-HT transporter; [2]): 0.0331 µM

- IC50 (hα2B receptor; [6]): 0.0024 µM
- IC50 (hα2C receptor; [7]): 0.000288 µM
- IC50 (h5-HT transporter; [10]): 0.0141 µM
SMILES: COCCOc1ccc2c(c1)OCC1C2=NOC1CN1CCN(CC(C)=Cc2ccccc2)CC1 (stereo not shown) [Compound 239]

SMILES: CCOC(=O)N1CC2C(=NOC2CN2CCN(CC=Cc3ccccc3)CC2)c2ccccc21 (stereo not shown) [Compound 226]
- hα2B pIC50 (hα2B receptor; [3]): 7.09
- hα2C pIC50 (hα2C receptor; [4]): 6.96
- 5HTT pIC50 (h5-HT transporter; [5]): 8.08

SMILES: COc1cc2c(cc1OC)C1=NOC(CN3CCN(Cc4ccc5ccccc5c4)CC3)C1CO2 (single isomer, unassigned) [Compound 16]
- IC50 (hα2B receptor; [1]): 0.00617 µM
- IC50 (hα2C receptor; [9]): 0.00676 µM
- IC50 (h5-HT transporter; [2]): 0.00372 µM

SMILES: c1ccc2c(c1)NCC1C2=NOC1CN1CCN(Cc2ccc3ccccc3c2)CC1 (stereo not shown) [Compound 9]
- IC50 (hα2B receptor; [6]): 0.00468 µM
- IC50 (hα2C receptor; [7]): 0.107 µM
- IC50 (h5-HT transporter; [10]): 0.00158 µM

SMILES: COc1ccc2c(c1)OCC1C2=NOC1CN1CCN(CC=Cc2ccccc2)CC1 (stereo not shown) [Compound 217]
- IC50 (hα2B receptor; [6]): 0.00617 µM
- IC50 (hα2C receptor; [9]): 0.0141 µM
- IC50 (h5-HT transporter; [10]): 0.0537 µM

SMILES: COc1cc2c(cc1OC)C1=NOC(CN3CCN(CC(C)=Cc4ccccc4)CC3)C1CN2 (single isomer, unassigned) [Compound 253]
- hα2B pIC50 (hα2B receptor; [3]): 7.94
- hα2C pIC50 (hα2C receptor; [4]): 7.98
- 5HTT pIC50 (h5-HT transporter; [5]): 6.60

SMILES: CC(=Cc1ccccc1)CN1CCN(CC2ON=C3c4ccc(OC5CCCC5)cc4OCC32)CC1 (stereo not shown) [Compound 243]
- hα2B pIC50 (hα2B receptor; [3]): 7.77
- hα2C pIC50 (hα2C receptor; [4]): 8.29
- 5HTT pIC50 (h5-HT transporter; [5]): 6.75

SMILES: COc1cc2c(cc1OC)C1=NOC(CN3CCN(CC=Cc4cccc(F)c4)CC3)C1CN2 (stereo not shown) [Compound 351]
- hα2B pIC50 (hα2B receptor; [3]): 8.16
- hα2C pIC50 (hα2C receptor; [4]): 8.19
- 5HTT pIC50 (h5-HT transporter; [5]): 8.06

SMILES: COc1cc2c(cc1OC)C1=NOC(CN3CCN(C/C=C/c4ccccc4)CC3)C1CO2 (single isomer, unassigned) [Compound 8]
- IC50 (hα2B receptor; [1]): 0.00724 µM
- IC50 (h5-HT transporter; [2]): 0.0178 µM

SMILES: CCNC(=O)Oc1ccc2c(c1)OCC1C2=NOC1CN1CCN(CC(C)=Cc2ccccc2)CC1 (stereo not shown) [Compound 238]
- IC50 (hα2B receptor; hα2B pIC50, membranes of CHO cells expressing human α2B receptor, [3H]raulwolscine 1 nM): 0.0024 µM
- IC50 (hα2C receptor; [8]): 0.00257 µM
- IC50 (h5-HT transporter; 5HTT pIC50): 0.00851 µM

- IC50 (hα2C receptor; [7]): 1 µM
- IC50 (h5-HT transporter; [10]): 0.355 µM
SMILES: COc1cc2c(cc1OC)C1=NOC(CN3CCN(Cc4cccc(C#N)c4)CC3)C1CO2 (stereo not shown) [Compound 97]

- IC50 (hα2B receptor; [6]): 0.00126 µM
- IC50 (hα2C receptor; [7]): 0.00117 µM
- IC50 (h5-HT transporter; [10]): 0.0115 µM
SMILES: CC(=Cc1ccccc1)CN1CCN(CC2ON=C3c4ccc(O)cc4OCC32)CC1 (stereo not shown) [Compound 237]

- IC50 (hα2C receptor; [7]): 1 µM
- IC50 (h5-HT transporter; [10]): 0.145 µM
SMILES: COc1cc2c(cc1OC)C1=NOC(CN3CCN(Cc4ccc([N+](=O)[O-])cc4)CC3)C1CO2 (stereo not shown) [Compound 81]

SMILES: COc1cc2c(cc1OC)C1=NOC(CN3CCN(Cc4ccc5ccccc5c4)CC3)C1CN2 (stereo not shown) [Compound 272]
- IC50 (hα2B receptor; [6]): 0.0269 µM
- IC50 (hα2C receptor; [7]): 0.135 µM
- IC50 (h5-HT transporter; [2]): 0.00479 µM

- IC50 (hα2B receptor; [6]): 0.000363 µM
- IC50 (h5-HT transporter; [10]): 0.0112 µM
SMILES: CC(=Cc1ccccc1)CN1CCN(CC2ON=C3c4ccc(OCCN(C)C)cc4OCC32)CC1 (stereo not shown) [Compound 242]

- IC50 (hα2B receptor; [6]): 0.00977 µM
- IC50 (hα2C receptor; [7]): 0.00676 µM
SMILES: COc1cc2c(cc1OC)C1=NOC(CN3CCN(C/C(C)=C/c4ccccc4)CC3)C1CO2 (single isomer, unassigned) [Compound 129]

- IC50 (hα2C receptor; [7]): 1 µM
- IC50 (h5-HT transporter; [10]): 1 µM
SMILES: COc1cc2c(cc1OC)C1=NOC(CN3CCN(Cc4ccccc4C(F)(F)F)CC3)C1CO2 (stereo not shown) [Compound 79]
